These are literature values, as cited in US20230175068A1, “PROGNOSIS METHOD OF ACUTE MYELOID LEUKAEMIA” (CENTRE NATIONAL DE LA RECHERCHE SCIENTIFIQUE, priority 2020, published 2023).

Like-named read-outs stand apart in the source and are kept apart here.

The subject of this series is AML cell lines.

For `O=C(c1cc(Cc2n[nH]c(=O)c3ccccc23)ccc1F)N1CCN(C(=O)C2CC2)CC1` [Olaparib], the T-Statistic (Drug sensitivity AUC (Sanger GDSC1)) is recorded as -3.795.

On to `O=C1NC(=O)c2c1c(-c1ccccc1Cl)cc1[nH]c3ccc(O)cc3c21` [Wee1 Inhibitor], for which the T-Statistic (Drug sensitivity AUC (Sanger GDSC2)) was -4.966.
